Laboratory results as given in patent US20200291018A1, “TAM KINASE INHIBITORS” (SYROS PHARMACEUTICALS, INC., priority 2017, published 2020).

Experiments:
TYRO3 = target: T1, TYRO3 (Homo sapiens, UniProt Q06418); assay: TR-FRET kinase activity assay, TYRO3; assay type: biochemical; details: ATP at Km, 60 minutes
T1 sequence (Q06418 41-890): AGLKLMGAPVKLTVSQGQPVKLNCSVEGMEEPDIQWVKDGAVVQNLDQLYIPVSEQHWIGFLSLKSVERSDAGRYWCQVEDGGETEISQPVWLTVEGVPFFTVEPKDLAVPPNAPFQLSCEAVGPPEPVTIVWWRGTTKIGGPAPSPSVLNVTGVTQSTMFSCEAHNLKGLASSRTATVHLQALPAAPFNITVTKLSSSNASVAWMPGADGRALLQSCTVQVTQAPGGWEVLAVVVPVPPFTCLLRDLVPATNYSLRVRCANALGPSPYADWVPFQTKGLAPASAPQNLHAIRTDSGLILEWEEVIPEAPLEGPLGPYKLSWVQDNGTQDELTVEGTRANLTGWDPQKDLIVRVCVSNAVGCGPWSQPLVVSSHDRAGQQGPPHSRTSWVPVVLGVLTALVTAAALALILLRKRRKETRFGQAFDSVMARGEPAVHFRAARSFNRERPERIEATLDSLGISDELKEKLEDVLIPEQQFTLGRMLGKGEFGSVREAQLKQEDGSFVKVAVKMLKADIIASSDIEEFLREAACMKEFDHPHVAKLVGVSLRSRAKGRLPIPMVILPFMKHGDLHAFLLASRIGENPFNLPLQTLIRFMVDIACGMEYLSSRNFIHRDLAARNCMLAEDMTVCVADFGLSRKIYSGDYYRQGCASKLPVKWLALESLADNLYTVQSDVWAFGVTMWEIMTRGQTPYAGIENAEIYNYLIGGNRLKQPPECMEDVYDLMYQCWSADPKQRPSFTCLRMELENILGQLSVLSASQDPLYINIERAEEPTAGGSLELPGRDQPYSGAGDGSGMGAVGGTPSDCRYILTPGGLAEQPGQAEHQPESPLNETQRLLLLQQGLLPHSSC
Outline: (§1)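 Steps: compound, enzyme and labeled peptide combined at RT (50 mM HEPES pH 7.5, 10 mM MgCl2, 1 mM DTT); ATP added at Km; 60 min reaction; EDTA quench; Eu-antibody development 30 min in darkness; TR-FRET measured and IC50 fitted.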

FLT3 = target: T2, FLT3 (Homo sapiens, UniProt P36888); assay: TR-FRET kinase activity assay, FLT3; assay type: biochemical; details: ATP at Km, 60 minutes
T2 sequence (P36888 27-993): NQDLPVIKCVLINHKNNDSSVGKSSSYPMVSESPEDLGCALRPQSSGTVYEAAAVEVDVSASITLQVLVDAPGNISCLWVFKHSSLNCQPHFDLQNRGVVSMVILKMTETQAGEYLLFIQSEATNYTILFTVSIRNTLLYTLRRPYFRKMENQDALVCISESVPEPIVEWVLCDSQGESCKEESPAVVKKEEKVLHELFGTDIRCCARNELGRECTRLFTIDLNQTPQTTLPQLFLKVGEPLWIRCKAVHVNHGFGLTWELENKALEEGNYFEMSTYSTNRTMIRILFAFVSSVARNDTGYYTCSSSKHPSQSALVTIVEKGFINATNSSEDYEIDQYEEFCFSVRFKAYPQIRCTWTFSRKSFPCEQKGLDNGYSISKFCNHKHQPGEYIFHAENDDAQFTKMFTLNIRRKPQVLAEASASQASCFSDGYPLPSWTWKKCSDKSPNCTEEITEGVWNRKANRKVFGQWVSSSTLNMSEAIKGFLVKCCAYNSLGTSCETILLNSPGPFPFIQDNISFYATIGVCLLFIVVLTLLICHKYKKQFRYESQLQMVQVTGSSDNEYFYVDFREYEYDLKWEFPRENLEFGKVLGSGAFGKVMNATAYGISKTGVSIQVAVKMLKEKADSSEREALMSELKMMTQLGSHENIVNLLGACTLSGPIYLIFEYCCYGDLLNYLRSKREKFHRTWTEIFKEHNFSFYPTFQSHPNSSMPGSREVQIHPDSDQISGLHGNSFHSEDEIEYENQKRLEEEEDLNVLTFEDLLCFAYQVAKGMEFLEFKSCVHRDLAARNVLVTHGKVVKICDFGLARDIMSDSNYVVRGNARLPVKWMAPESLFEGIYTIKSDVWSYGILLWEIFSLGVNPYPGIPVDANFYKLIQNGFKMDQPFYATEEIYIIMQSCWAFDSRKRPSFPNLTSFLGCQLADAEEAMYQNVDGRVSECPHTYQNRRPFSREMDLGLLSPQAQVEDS
Outline: as §1

Row | SMILES | IC50 (TYRO3) | IC50 (FLT3)
1 | COCCN1C(C)(C)CC(Oc2ncc([C@H]3CC[C@H](O)CC3)c3nc(N[C@@H]4CCOC4)ncc23)CC1(C)C [Compound 390] | 100 to 1000 nM | 1000 to 10000 nM
2 | CCN1C(C)(C)CC(Oc2ncc([C@H]3CC[C@H](O)CC3)c3nc(N[C@@H](C)CC(F)(F)F)ncc23)CC1(C)C [Compound 391] | ≤ 100 nM | 100 to 1000 nM
3 | O[C@H]1CC[C@H](c2cnc(OC3CCOCC3)c3cnc(Nc4ccc(-c5nn[nH]n5)cc4)nc32)CC1 [Compound 392] | ≤ 100 nM | 100 to 1000 nM
4 | COC[C@H](C)Nc1ncc2c(O[C@H]3C[C@@H](C(=O)N4CCN(C)CC4)C3)ncc([C@H]3CC[C@H](O)CC3)c2n1 [Compound 393] | ≤ 100 nM | 1000 to 10000 nM
5 | C[C@@H](Nc1ncc2c(OC3CCOCC3)ncc([C@H]3CC[C@H](O)CC3)c2n1)C(F)F [Compound 394] | 100 to 1000 nM | 1000 to 10000 nM
6 | COC[C@H](C)Nc1ncc2c(OC3CCOCC3)ncc(-c3ccc(F)cc3)c2n1 [Compound 395] | 1000 to 10000 nM | 1000 to 10000 nM
7 | COC[C@H](C)Nc1ncc2c(OC3CCOCC3)ncc(-c3ccc(C#N)cc3)c2n1 [Compound 396] | 100 to 1000 nM | 1000 to 10000 nM
8 | O=C(O)c1ccc(Nc2ncc3c(OC4CCOCC4)ncc([C@H]4CC[C@H](O)CC4)c3n2)cc1 [Compound 397] | ≤ 100 nM | ≤ 100 nM
9 | CNC(=O)c1ccc(Nc2ncc3c(OC4CCOCC4)ncc([C@H]4CC[C@H](O)CC4)c3n2)cc1 [Compound 398] | ≤ 100 nM | 100 to 1000 nM
10 | NC(=O)c1ccc(Nc2ncc3c(OC4CCOCC4)ncc([C@H]4CC[C@H](O)CC4)c3n2)cc1 [Compound 399] | ≤ 100 nM | ≤ 100 nM
11 | COC[C@H](C)Nc1ncc2c(OC3CCOCC3)ncc(-c3ccc(S(C)(=O)=O)cc3)c2n1 [Compound 400] | 100 to 1000 nM | 1000 to 10000 nM
12 | C[C@H](CF)Nc1ncc2c(OC3CCOCC3)ncc([C@H]3CC[C@H](O)CC3)c2n1 [Compound 401] | 100 to 1000 nM | 1000 to 10000 nM
13 | C[C@@H](CC(F)(F)F)Nc1ncc2c(O[C@H]3C[C@@H](CN4CCOCC4)C3)ncc([C@H]3CC[C@H](O)CC3)c2n1 [Compound 402] | ≤ 100 nM | 100 to 1000 nM
14 | COC[C@H](C)Nc1ncc2c(C(F)(F)F)ncc([C@H]3CC[C@H](O)CC3)c2n1 [Compound 403] | 1000 to 10000 nM | 1000 to 10000 nM
15 | CC1(Nc2ncc3c(OC4CCOCC4)ncc(-c4cccc(NS(C)(=O)=O)c4)c3n2)CC1 [Compound 404] | 100 to 1000 nM | 1000 to 10000 nM
16 | CC1(Nc2ncc3c(OC4CCOCC4)ncc(-c4cccc(S(=O)(=O)N5CCC5)c4)c3n2)CC1 [Compound 405] | 100 to 1000 nM | 1000 to 10000 nM
17 | C[C@H](CC(F)(F)F)Nc1ncc2c(O[C@H]3C[C@@H](O)C3)ncc([C@H]3CC[C@H](O)CC3)c2n1 [Compound 406] | ≤ 100 nM | 1000 to 10000 nM
18 | C[C@@H](COC(F)F)Nc1ncc2c(O[C@H]3C[C@@H](O)C3)ncc([C@H]3CC[C@H](O)CC3)c2n1 [Compound 407] | ≤ 100 nM | 1000 to 10000 nM
19 | C[C@@H](CC(F)(F)F)Nc1ncc2c(O[C@H]3C[C@@H](N4CCOCC4)C3)ncc([C@H]3CC[C@H](O)CC3)c2n1 [Compound 408] | ≤ 100 nM | 100 to 1000 nM
20 | C[C@@H](CC(F)(F)F)Nc1ncc2c(O[C@H]3C[C@@H](O)C3)ncc(-c3ccc(C4(C#N)CC4)cc3)c2n1 [Compound 409] | ≤ 100 nM | 100 to 1000 nM

Row | SMILES | IC50 (TYRO3) | IC50 (FLT3)
21 | O=C(O)[C@H]1CC[C@H](Nc2ncc3c(OC4CCOCC4)ncc([C@H]4CC[C@H](O)CC4)c3n2)CC1 [Compound 410] | 100 to 1000 nM | 1000 to 10000 nM
22 | C[C@H](Nc1ncc2c(O[C@H]3C[C@@H](O)C3)ncc([C@H]3CC[C@H](O)CC3)c2n1)C(F)F [Compound 411] | ≤ 100 nM | 1000 to 10000 nM
23 | C[C@@H](CC(F)(F)F)Nc1ncc2c(O[C@@H]3C[C@H]4CC[C@@H](C3)N4C[C@H]3CCCO3)ncc([C@H]3CC[C@H](O)CC3)c2n1 [Compound 412] | ≤ 100 nM | ≤ 100 nM
24 | C[C@@H](CC(F)(F)F)Nc1ncc2c(O[C@@H]3C[C@H]4CC[C@@H](C3)N4[C@H]3CCOC3)ncc([C@H]3CC[C@H](O)CC3)c2n1 [Compound 413] | ≤ 100 nM | ≤ 100 nM
25 | C[C@@H](CC(F)(F)F)Nc1ncc2c(O[C@@H]3C[C@H]4CC[C@@H](C3)N4C[C@H]3CCOC3)ncc([C@H]3CC[C@H](O)CC3)c2n1 [Compound 414] | ≤ 100 nM | ≤ 100 nM
26 | C[C@@H](CC(F)(F)F)Nc1ncc2c(O[C@@H]3C[C@H]4CC[C@@H](C3)N4[C@@H]3CCOC3)ncc([C@H]3CC[C@H](O)CC3)c2n1 [Compound 415] | ≤ 100 nM | 100 to 1000 nM
27 | C[C@@H](CC(F)(F)F)Nc1ncc2c(O[C@@H]3C[C@H]4CC[C@@H](C3)N4C[C@@H]3CCOC3)ncc([C@H]3CC[C@H](O)CC3)c2n1 [Compound 416] | ≤ 100 nM | ≤ 100 nM
28 | CO[C@H]1C[C@@H]1Nc1ncc2c(O[C@H]3C[C@@H](O)C3)ncc([C@H]3CC[C@H](O)CC3)c2n1 [Compound 417] | ≤ 100 nM | 100 to 1000 nM
29 | C[C@@H](CC(F)(F)F)Nc1ncc2c(OC3CC(C)(C)N(C[C@@H]4CCCO4)C(C)(C)C3)ncc([C@H]3CC[C@H](O)CC3)c2n1 [Compound 418] | ≤ 100 nM | ≤ 100 nM
30 | COC[C@H](C)Nc1ncc2c(O[C@H]3C[C@H](C(=O)N4CCN(C)CC4)C3)ncc([C@H]3CC[C@H](O)CC3)c2n1 [Compound 419] | ≤ 100 nM | 1000 to 10000 nM
31 | C[C@@H](CC(F)(F)F)Nc1ncc2c(O[C@H]3C[C@H](CN4CCOCC4)C3)ncc([C@H]3CC[C@H](O)CC3)c2n1 [Compound 420] | ≤ 100 nM | 100 to 1000 nM
32 | C[C@@H](CC(F)(F)F)Nc1ncc2c(O[C@@H]3C[C@H]4CC[C@@H](C3)N4C[C@@H]3CCCO3)ncc([C@H]3CC[C@H](O)CC3)c2n1 [Compound 421] | ≤ 100 nM | ≤ 100 nM
33 | C[C@@H](CC(F)(F)F)Nc1ncc2c(O[C@H]3C[C@H](N4CCOCC4)C3)ncc([C@H]3CC[C@H](O)CC3)c2n1 [Compound 422] | ≤ 100 nM | 100 to 1000 nM
34 | C[C@@H](CC(F)(F)F)Nc1ncc2c(O[C@H]3C[C@@H](O)C3)ncc([C@H]3CC[C@](C)(O)CC3)c2n1 [Compound 423] | ≤ 100 nM | 100 to 1000 nM
35 | C[C@@H](CC(F)(F)F)Nc1ncc2c(O[C@H]3C[C@@H](O)C3)ncc([C@H]3CC[C@@](C)(O)CC3)c2n1 [Compound 424] | ≤ 100 nM | 100 to 1000 nM
36 | COC[C@H](C)Nc1ncc2c(O[C@H]3C[C@@H](O)C3)ncc(-c3ccnnc3)c2n1 [Compound 425] | 1000 to 10000 nM | 1000 to 10000 nM
37 | COC[C@H](C)Nc1ncc2c(O[C@H]3C[C@@H](O)C3)ncc([C@H]3CC[C@](C)(O)CC3)c2n1 [Compound 426] | ≤ 100 nM | 1000 to 10000 nM
38 | COC[C@H](C)Nc1ncc2c(O[C@H]3C[C@@H](O)C3)ncc([C@H]3CC[C@@](C)(O)CC3)c2n1 [Compound 427] | ≤ 100 nM | > 10000 nM
39 | C[C@@H](CC(F)F)Nc1ncc2c(O[C@H]3C[C@@H](O)C3)ncc([C@H]3CC[C@H](O)CC3)c2n1 [Compound 428] | ≤ 100 nM | 100 to 1000 nM
